Reference: PubChem BioAssay AID2060508 (Molecular Pharmacology Branch, DTP, NCI, 2025)

The compounds below were run on 454973-116-R2-J3-PDC spheroids, viability, % test/control (assay: Anticancer human tumor 454973-116-R2-J3-PDC patient-derived pancreatic carcinoma cell line growth inhibition [GQUAD]). Settings: second compound 0.0316 µM; first compound 3.16 µM; hits give low values; spheroids with HUVEC and MSC.
In short: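 Multi-cell-type spheroids of tumor cells with HUVEC and mesenchymal stem cells, treated with drug combinations. Concentrations descend in half-log steps from near clinical Cmax, or from 10 microM where Cmax is unknown; viability read-out.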
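Also: spheroids exposed to compounds for seven days; 100% = DMSO vehicle control viability.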

Structure (SMILES)	viability, T/C
C=CC(=O)N1CCN(c2nc(=O)n(-c3c(C)ccnc3C(C)C)c3nc(-c4c(O)cccc4F)c(F)cc23)C(C)C1 (stereo unspecified) + CN(C)c1ccc(Nc2c3ccc(NC(=O)CCN4CCCC4)cc3nc3cc(NC(=O)CCN4CCCC4)ccc23)cc1	102%
CC1COCCN1c1cc(C2(O)CC3CCC(C2)O3)c2cnn(-c3ccn[nH]3)c2n1 (stereo unspecified) + CN(C)c1ccc(Nc2c3ccc(NC(=O)CCN4CCCC4)cc3nc3cc(NC(=O)CCN4CCCC4)ccc23)cc1	21.4%
Cc1cccc(N(C)C(=O)C2C(O)CCN2c2nc(C)cc(C(F)(F)F)c2C#N)c1 (stereo unspecified) + CN(C)c1ccc(Nc2c3ccc(NC(=O)CCN4CCCC4)cc3nc3cc(NC(=O)CCN4CCCC4)ccc23)cc1	109%
O=C(c1cc(Cc2n[nH]c(=O)c3ccccc23)ccc1F)N1CCN(C(=O)C2CC2)CC1 + CN(C)c1ccc(Nc2c3ccc(NC(=O)CCN4CCCC4)cc3nc3cc(NC(=O)CCN4CCCC4)ccc23)cc1	85.1%

Same assay, conditions: second compound 0.0316 µM; first compound 10 µM; hits give low values; spheroids with HUVEC and MSC

Structure (SMILES)	viability, T/C
C=CC(=O)N1CCN(c2nc(=O)n(-c3c(C)ccnc3C(C)C)c3nc(-c4c(O)cccc4F)c(F)cc23)C(C)C1 (stereo unspecified) + CN(C)c1ccc(Nc2c3ccc(NC(=O)CCN4CCCC4)cc3nc3cc(NC(=O)CCN4CCCC4)ccc23)cc1	115%
CC1COCCN1c1cc(C2(O)CC3CCC(C2)O3)c2cnn(-c3ccn[nH]3)c2n1 (stereo unspecified) + CN(C)c1ccc(Nc2c3ccc(NC(=O)CCN4CCCC4)cc3nc3cc(NC(=O)CCN4CCCC4)ccc23)cc1	15%
Cc1cccc(N(C)C(=O)C2C(O)CCN2c2nc(C)cc(C(F)(F)F)c2C#N)c1 (stereo unspecified) + CN(C)c1ccc(Nc2c3ccc(NC(=O)CCN4CCCC4)cc3nc3cc(NC(=O)CCN4CCCC4)ccc23)cc1	100%
O=C(c1cc(Cc2n[nH]c(=O)c3ccccc23)ccc1F)N1CCN(C(=O)C2CC2)CC1 + CN(C)c1ccc(Nc2c3ccc(NC(=O)CCN4CCCC4)cc3nc3cc(NC(=O)CCN4CCCC4)ccc23)cc1	61.4%

Same assay, conditions: second compound 0.1 µM; first compound 0.000999 µM; hits give low values; spheroids with HUVEC and MSC

Structure (SMILES)	viability, T/C
Cn1ncnc1[C@H]1c2n[nH]c(=O)c3cc(F)cc(c23)N[C@@H]1c1ccc(F)cc1 + CN(C)c1ccc(Nc2c3ccc(NC(=O)CCN4CCCC4)cc3nc3cc(NC(=O)CCN4CCCC4)ccc23)cc1	103%

Same assay, conditions: second compound 0.1 µM; first compound 0.00316 µM; hits give low values; spheroids with HUVEC and MSC

Structure (SMILES)	viability, T/C
Cn1ncnc1[C@H]1c2n[nH]c(=O)c3cc(F)cc(c23)N[C@@H]1c1ccc(F)cc1 + CN(C)c1ccc(Nc2c3ccc(NC(=O)CCN4CCCC4)cc3nc3cc(NC(=O)CCN4CCCC4)ccc23)cc1	94%

Same assay, conditions: second compound 0.1 µM; first compound 0.00999 µM; hits give low values; spheroids with HUVEC and MSC

Structure (SMILES)	viability, T/C
Cn1ncnc1[C@H]1c2n[nH]c(=O)c3cc(F)cc(c23)N[C@@H]1c1ccc(F)cc1 + CN(C)c1ccc(Nc2c3ccc(NC(=O)CCN4CCCC4)cc3nc3cc(NC(=O)CCN4CCCC4)ccc23)cc1	96.6%

Same assay, conditions: second compound 0.1 µM; first compound 0.0316 µM; hits give low values; spheroids with HUVEC and MSC

Structure (SMILES)	viability, T/C
C=CC(=O)N1CCN(c2nc(=O)n(-c3c(C)ccnc3C(C)C)c3nc(-c4c(O)cccc4F)c(F)cc23)C(C)C1 (stereo unspecified) + CN(C)c1ccc(Nc2c3ccc(NC(=O)CCN4CCCC4)cc3nc3cc(NC(=O)CCN4CCCC4)ccc23)cc1	103%
CC1COCCN1c1cc(C2(O)CC3CCC(C2)O3)c2cnn(-c3ccn[nH]3)c2n1 (stereo unspecified) + CN(C)c1ccc(Nc2c3ccc(NC(=O)CCN4CCCC4)cc3nc3cc(NC(=O)CCN4CCCC4)ccc23)cc1	98.6%
Cc1cccc(N(C)C(=O)C2C(O)CCN2c2nc(C)cc(C(F)(F)F)c2C#N)c1 (stereo unspecified) + CN(C)c1ccc(Nc2c3ccc(NC(=O)CCN4CCCC4)cc3nc3cc(NC(=O)CCN4CCCC4)ccc23)cc1	102%
Cn1ncnc1[C@H]1c2n[nH]c(=O)c3cc(F)cc(c23)N[C@@H]1c1ccc(F)cc1 + CN(C)c1ccc(Nc2c3ccc(NC(=O)CCN4CCCC4)cc3nc3cc(NC(=O)CCN4CCCC4)ccc23)cc1	89.4%
O=C(c1cc(Cc2n[nH]c(=O)c3ccccc23)ccc1F)N1CCN(C(=O)C2CC2)CC1 + CN(C)c1ccc(Nc2c3ccc(NC(=O)CCN4CCCC4)cc3nc3cc(NC(=O)CCN4CCCC4)ccc23)cc1	108%

Same assay, conditions: second compound 0.1 µM; first compound 0.0999 µM; hits give low values; spheroids with HUVEC and MSC

Structure (SMILES)	viability, T/C
Cn1ncnc1[C@H]1c2n[nH]c(=O)c3cc(F)cc(c23)N[C@@H]1c1ccc(F)cc1 + CN(C)c1ccc(Nc2c3ccc(NC(=O)CCN4CCCC4)cc3nc3cc(NC(=O)CCN4CCCC4)ccc23)cc1	81.6%

Same assay, conditions: second compound 0.1 µM; first compound 0.1 µM; hits give low values; spheroids with HUVEC and MSC

Structure (SMILES)	viability, T/C
C=CC(=O)N1CCN(c2nc(=O)n(-c3c(C)ccnc3C(C)C)c3nc(-c4c(O)cccc4F)c(F)cc23)C(C)C1 (stereo unspecified) + CN(C)c1ccc(Nc2c3ccc(NC(=O)CCN4CCCC4)cc3nc3cc(NC(=O)CCN4CCCC4)ccc23)cc1	98.9%
CC1COCCN1c1cc(C2(O)CC3CCC(C2)O3)c2cnn(-c3ccn[nH]3)c2n1 (stereo unspecified) + CN(C)c1ccc(Nc2c3ccc(NC(=O)CCN4CCCC4)cc3nc3cc(NC(=O)CCN4CCCC4)ccc23)cc1	66.8%
Cc1cccc(N(C)C(=O)C2C(O)CCN2c2nc(C)cc(C(F)(F)F)c2C#N)c1 (stereo unspecified) + CN(C)c1ccc(Nc2c3ccc(NC(=O)CCN4CCCC4)cc3nc3cc(NC(=O)CCN4CCCC4)ccc23)cc1	106%
O=C(c1cc(Cc2n[nH]c(=O)c3ccccc23)ccc1F)N1CCN(C(=O)C2CC2)CC1 + CN(C)c1ccc(Nc2c3ccc(NC(=O)CCN4CCCC4)cc3nc3cc(NC(=O)CCN4CCCC4)ccc23)cc1	96.7%

Same assay, conditions: second compound 0.1 µM; first compound 0.316 µM; hits give low values; spheroids with HUVEC and MSC

Structure (SMILES)	viability, T/C
C=CC(=O)N1CCN(c2nc(=O)n(-c3c(C)ccnc3C(C)C)c3nc(-c4c(O)cccc4F)c(F)cc23)C(C)C1 (stereo unspecified) + CN(C)c1ccc(Nc2c3ccc(NC(=O)CCN4CCCC4)cc3nc3cc(NC(=O)CCN4CCCC4)ccc23)cc1	107%
CC1COCCN1c1cc(C2(O)CC3CCC(C2)O3)c2cnn(-c3ccn[nH]3)c2n1 (stereo unspecified) + CN(C)c1ccc(Nc2c3ccc(NC(=O)CCN4CCCC4)cc3nc3cc(NC(=O)CCN4CCCC4)ccc23)cc1	31.2%
Cc1cccc(N(C)C(=O)C2C(O)CCN2c2nc(C)cc(C(F)(F)F)c2C#N)c1 (stereo unspecified) + CN(C)c1ccc(Nc2c3ccc(NC(=O)CCN4CCCC4)cc3nc3cc(NC(=O)CCN4CCCC4)ccc23)cc1	98.6%
Cn1ncnc1[C@H]1c2n[nH]c(=O)c3cc(F)cc(c23)N[C@@H]1c1ccc(F)cc1 + CN(C)c1ccc(Nc2c3ccc(NC(=O)CCN4CCCC4)cc3nc3cc(NC(=O)CCN4CCCC4)ccc23)cc1	72.3%
O=C(c1cc(Cc2n[nH]c(=O)c3ccccc23)ccc1F)N1CCN(C(=O)C2CC2)CC1 + CN(C)c1ccc(Nc2c3ccc(NC(=O)CCN4CCCC4)cc3nc3cc(NC(=O)CCN4CCCC4)ccc23)cc1	99.3%
